The source of these data is US20060167269A1, “Compounds and methods for the inhibition of compounds cruzi” (priority 2001, published 2006).

One series relates to C. albicans. Nature of the series: Candida broth dilution assay, C. albicans. It is filed as cell-based. Conditions: 80% growth inhibition, 24 h. As to the method: (§1) The compound JJ119 was tested for anti-Candida activity in a standard assay, as described below, against a number of strains of fungus. The assay compared inhibition (the effective dose causing 80% growth inhibition of the fungus) of several strains of Candida spp. using Fluconazole and compound JJ 119 (R^3 is CH3, all other variable substituents are H) of the present invention (see Table I, above).
(§2) The Candida assay followed the “Reference method for broth dilution antifungal susceptibility testing of yeasts; approved standard”, NCCLS, June, 1997. The procedure was modified to a 96 well format (as described in Modifications section 3.8). The methodology employed deviated from the approved method by reading results at 24 h rather than 48 h (since cultures of the ATCC strains were generally dense by 24 h).
(§3) In general, Candida were inoculated at a density of 2×10^3/ml in RPMI based medium in the presence of drugs at the following concentrations: 50 uM, 10 uM, 2 uM, 0.4 uM, and 0 uM. Cells were incubated at 34° C. for 24 hr and growth inhibition was scored visually for turbidity. All drugs were diluted in DMSO (except fluconazole which was diluted in water). Top concentration of DMSO in the cultures was 0.25%; DMSO alone at 0.5% was not inhibitory to C. albicans.

For another series, the system named is C. glabrata. Nature of the series: Candida broth dilution assay, C. glabrata. Type of series: cell-based. Conditions: 80% growth inhibition, 24 h. As to the method:
as §1, §2, §3
In general terms: Broth dilution looks for growth in wells or tubes with falling amounts of substance.

Series [1] concerns T. cruzi (Tulahuen strain). Nature of the series: T. cruzi growth on monolayers of mouse 3T3 fibroblasts. It is filed as cell-based, Trypanosoma cruzi. As to the method: (§4) Compounds which appear in Table 1, below were tested […] using the Tulahuen strain of T. cruzi. See Buckner, et al., Antimicrobial Agents and Chemotherapy, 40, 2592-2597 (1996). In this assay, trypomastigotes were grown on monolayers of mouse 3T3 fibroblasts as previously described by Van Voorhis, et al., J. Exp. Med. 169: 641-652 (1989). […] The assay also tested for inhibition of fibroblast growth (an indication of potential toxicity). In virtually all instances, the compounds were non-toxic in the assay. In Table 1, if a substituent is left blank, such a substituent is defined as a hydrogen. [drawing 5]

The test system of another series is mouse 3T3 fibroblasts. Nature of the series: inhibition of fibroblast growth (indication of potential toxicity). It is filed as cell-based. The note with it: inhibition of 3T3 fibroblast growth. The procedure:
as §4

Series [2] is described as follows: incubation in murine serum (ester hydrolysis). Type of series: in vitro ADME, mouse. Conditions: 30 minutes of incubation. The text has this:
The blood serum esterase levels of mice is very high, and it was thought that eliminating the ester group would increase the bioavailability of the aminobiphenyl over the ester.

Series [3] relates to T. cruzi trypomastigotes (Tulahuen). Nature of the series: anti-T. cruzi activity in infected mice. Type of series: in vivo, mouse. The procedure:
FIGS. 3A and B represent mouse data for compound JJ121. FIG. 3A represents Parasite levels and FIG. 3B represents Survival for treated and control mice. Mice were dosed orally at 50 mg/kg twice daily on days 1-10. They were infected with T. cruzi trypomastigotes (Tulahuen) 2×10^3 SQ at day 0. Parasitemia was quantified microscopically on a small drop of tail blood at 400×.
Despite this apparent stability, however, the results for anti-T. cruzi activity in infected mice is much better for JJ121 than for JJ37. […] All mice receiving JJ121 survive past 100 days, whereas the vehicle mice all die by day 20.

The next series concerns C. krusei. The series is described as follows: Candida broth dilution assay, C. krusei. Type of series: cell-based. Conditions: 80% growth inhibition, 24 h. As to the method: as §1, §2, §3
For a further series, the system named is C. tropicalis. Nature of the series: Candida broth dilution assay, C. tropicalis. Type of series: cell-based. The note with it: 80% growth inhibition, 24 h. As to the method: as §1, §2, §3
The test system of a further series is C. parapsilosis. The series is described as follows: Candida broth dilution assay, C. parapsilosis. Type of series: cell-based. The note with it: 80% growth inhibition, 24 h. The procedure: as §1, §2, §3
The next series deals with Candida spp. The series is described as follows: Candida broth dilution assay. Type of series: cell-based. As to the method: as §1, §2, §3
The mark [4] stands for this setting: read-out: activity against T. cruzi.
The mark [5] stands for this setting: drug concentration giving 50% inhibition of T. cruzi growth on 3T3 fibroblasts, read-out: EC50 T. cruzi.

Each structure is given as a SMILES string. “And” between values parts separate entries of the source, which are not always exact repeats. Equal entries are not always repeated. Where two headings read alike, the source gives them in different places.

`OC(Cn1cncn1)(Cn1cncn1)c1ccc(F)cc1F` [Fluconazole]: the ED80 with C. albicans (C. albicans strain 1) is 6.53 µM; with C. glabrata (C. glabrata strain 1), 104.5 μM and (32) μg/ml; with C. glabrata (C. glabrata strain 2), 6.528 μM and (2) μg/ml; with C. glabrata (C. glabrata strain 3) it was 208.9 μM and (64) μg/ml.

In the case of `COC(=O)c1ccc(NCc2cncn2Cc2ccc(C#N)cc2)cc1-c1ccccc1` [JJ20], the EC50 in series [1] (setting [4]) is 0.04 µM; with mouse 3T3 fibroblasts, greater than 10 µM.

For the compound `COC(=O)c1ccc(NCc2cncn2Cc2ccccc2)cc1-c1ccccc1` [JJ21], the EC50 is 0.08 µM in [1] (setting [5]) and greater than 10 µM with mouse 3T3 fibroblasts.

Take `N#Cc1ccc(Cn2cncc2CNc2ccc(C(=O)O)c(-c3ccccc3)c2)cc1` [JJ28]: the EC50 in [1] (setting [4]) is 1 µM; in the series with mouse 3T3 fibroblasts it was greater than 10 µM.

As for `COC(=O)c1ccc(NCc2cncn2Cc2ccc(-c3ccccc3)cc2)cc1-c1ccccc1` [JJ37], the figures for the EC50 (in series [1] (read-out: activity against T. cruzi amastigotes); with mouse 3T3 fibroblasts) were 0.0005 µM and greater than 10 µM, respectively. In [2], the “species found after incubation in murine serum” value is “the ester is the only species”. In addition, in series [3] (infected mice), the “activity in mouse models” value was “shows activity in mouse models, but much less than that of JJ121”.

On to `COC(=O)c1ccc(NCc2cncn2Cc2ccc([N+](=O)[O-])cc2)cc1-c1ccccc1` [JJ51, p-NO2-imid-BP-COOMe], for which the EC50 in series [1] (setting [5]) is 0.1 µM; in the series with mouse 3T3 fibroblasts it was greater than 10 µM.

`COC(=O)c1ccc(NCc2cncn2Cc2ccc(C)cc2)cc1-c1ccccc1` [JJ52, p-CH3-imid-BP-COOMe]: the EC50 was 0.005 µM in series [1] (setting [5]) and greater than 10 µM in the series with mouse 3T3 fibroblasts.

As for `COC(=O)c1ccc(NCc2cncn2Cc2ccc(Cl)cc2)cc1-c1ccccc1` [JJ53, p-Cl-imid-BP-COOMe], the EC50 in [1] (setting [5]) was 0.005 µM; in the series with mouse 3T3 fibroblasts, greater than 10 µM.

Regarding `COC(=O)c1ccc(NCc2cncn2Cc2ccc(Br)cc2)cc1-c1ccccc1` [JJ57, p-Br-imid-BP-COOMe], the EC50 in series [1] (setting [5]) is 0.02 µM; in the series with mouse 3T3 fibroblasts, greater than 10 µM.

On to `COC(=O)c1ccc(NCc2cncn2Cc2ccc(N)cc2)cc1-c1ccccc1` [JJ58, p-NH2-imid-BP-COOMe], for which the EC50 in [1] (setting [5]) was 0.25 µM; with mouse 3T3 fibroblasts, greater than 10 µM.

`N#Cc1ccc(Cn2cncc2CNc2cccc(-c3ccccc3)c2)cc1` [JJ73]: the EC50 in [1] (setting [5]) was 0.05 µM.

`COC(=O)c1ccc(NCc2cncn2Cc2cccc([N+](=O)[O-])c2)cc1-c1ccccc1` [JJ81, m-NO2-imid-BP-COOMe]: the EC50 was 0.03 µM in [1] (setting [5]) and greater than 10 µM in the series with mouse 3T3 fibroblasts.

`COC(=O)c1ccc(NCc2cncn2Cc2cccc(C)c2)cc1-c1ccccc1` [JJ82, m-CH3-imid-BP-COOMe]: the EC50 in series [1] (setting [5]) was 0.02 µM; in the series with mouse 3T3 fibroblasts it was greater than 10 µM.

In the case of `COC(=O)c1ccc(NCc2cncn2Cc2cccc(N)c2)cc1-c1ccccc1` [JJ83, m-NH2-imid-BP-COOMe], the results for the EC50 (in series [1] (setting [5]); in the series with mouse 3T3 fibroblasts) were 0.13 µM and greater than 10 µM, respectively.

For the compound `COC(=O)c1ccc(NCc2cncn2Cc2cccc(Cl)c2)cc1-c1ccccc1` [JJ84, m-Cl-imid-BP-COOMe], the EC50 in [1] (setting [5]) was 0.02 µM; with mouse 3T3 fibroblasts, greater than 10 µM.

For the compound `COC(=O)c1ccc(NCc2cncn2Cc2cccc(Br)c2)cc1-c1ccccc1` [JJ85, m-Br-imid-BP-COOMe], the EC50 is 0.02 µM in series [1] (setting [5]) and greater than 10 µM in the series on mouse 3T3 fibroblasts.

With `COC(=O)c1ccc(NCc2cncn2Cc2cccc(C#N)c2)cc1-c1ccccc1` [JJ97, m-CN-imid-BP-COOMe], the EC50 in series [1] (setting [5]) was 0.1 µM; in the series on mouse 3T3 fibroblasts, greater than 10 µM.

`COC(=O)c1ccc(NCc2cncn2Cc2ccccc2C)cc1-c1ccccc1` [JJ101, o-CH3-imid-BP-COOMe]: the EC50 in [1] (setting [5]) worked out at 1 µM.

Take `COC(=O)c1ccc(NCc2cncn2Cc2ccccc2Br)cc1-c1ccccc1` [JJ102, o-Br-imid-BP-COOMe]: the EC50 in [1] (setting [5]) worked out at 0.1 µM.

In the case of `COC(=O)c1ccc(NCc2cncn2Cc2ccccc2C#N)cc1-c1ccccc1` [JJ103, o-CN-imid-BP-COOMe], the figures for the EC50 (in series [1] (setting [5]); with mouse 3T3 fibroblasts) were 0.2 µM and greater than 10 µM, respectively.

Regarding `COC(=O)c1ccc(NCc2cncn2Cc2cccc(C(F)(F)F)c2)cc1-c1ccccc1` [JJ104], the EC50 in series [1] (setting [5]) was 0.04 µM; in the series with mouse 3T3 fibroblasts, greater than 10 µM.

Take `COC(=O)c1ccc(NCc2cncn2Cc2ccccc2N)cc1-c1ccccc1` [JJ105, o-NH2-imid-BP-COOMe]: the EC50 was 0.005 µM in series [1] (setting [5]) and greater than 10 µM in the series on mouse 3T3 fibroblasts.

In the case of `COC(=O)c1ccc(NCc2cncn2Cc2ccccc2Cl)cc1-c1ccccc1` [JJ117], in the series on mouse 3T3 fibroblasts, the EC50 was greater than 10 µM.

`O=[N+]([O-])c1ccc(Cn2cncc2CNc2cccc(-c3ccccc3)c2)cc1` [JJ118, p-NO2-imid-BP]: the EC50 in series [1] (setting [5]) came out at 0.1 µM.

On to `Cc1ccc(Cn2cncc2CNc2cccc(-c3ccccc3)c2)cc1` [JJ119, p-CH3-imid-BP], for which, in series [1] (setting [5]), the EC50 is 0.1 µM. Moreover, the ED80 with C. albicans (C. albicans strain 1) was 12.5 µM; with C. albicans (C. albicans strain 2), 12.5 µM; with C. albicans (C. albicans strain 3), 6.25 µM; in the series on C. krusei (C. krusei strain 1) it was 25 µM; in the series with C. krusei (C. krusei strain 2), 50 µM; in the series with C. krusei (C. krusei strain 3), 25 µM. Moreover, the ED80 is 12.5 µM in the series with C. glabrata (C. glabrata strain 1); 6.25 µM with C. glabrata (C. glabrata strain 2); 25 µM with C. glabrata (C. glabrata strain 3); greater than 100 µM in the series on C. tropicalis (C. tropicalis strain 1); greater than 100 µM with C. tropicalis (C. tropicalis strain 2 (first line so named, r25)); greater than 100 µM in the series on C. tropicalis (C. tropicalis strain 2 (second line so named, r27)). The ED80 in the series with C. parapsilosis (C. parapsilosis strain 1) was 100 µM and 50 µM; in the series on C. parapsilosis (C. parapsilosis strain 2), 25 µM and 12.5 µM. Also, in the series with Candida spp., the anti-Candida activity result was “favorable anti-Candida activity”.

Turning to `Clc1ccc(Cn2cncc2CNc2cccc(-c3ccccc3)c2)cc1` [JJ120, p-Cl-imid-BP], the EC50 in series [1] (setting [5]) stood at 0.08 µM. In the series on Candida spp., the anti-Candida activity entry was “exhibited activity”.

In general, IC50 refers to the concentration needed to halve the response being measured. Higher therefore signals lower potency. As to `c1ccc(-c2ccc(Cn3cncc3CNc3cccc(-c4ccccc4)c3)cc2)cc1` [JJ121, p-Ph-imid-BP], the “reduced activity compared with JJ37” value in series [1] is 20 fold. Besides, half-maximal inhibition in series [1] (T. cruzi) (IC50) required 0.01 µM. Further, the EC50 in series [1] (setting [5]) was found to be 0.01 µM. Further, in series [3] (mice, oral 50 mg/kg twice daily on days 1-10, vehicle mice all die by day 20), the survival is given as greater than 100 days. For the same compound, in series [3] (mice, oral 50 mg/kg twice daily, within 45 days), the “parasite level in mouse blood” value was “dramatic suppression of parasite from mouse blood”.

With `CCOC(=O)c1ccc(NCc2cncn2Cc2ccc(-c3ccccc3)cc2)cc1-c1ccccc1` [JJ128], the results for the EC50 (in series [1] (setting [5]); in the series on mouse 3T3 fibroblasts) were 0.01 µM and greater than 10 µM, respectively.

With `CC(C)OC(=O)c1ccc(NCc2cncn2Cc2ccc(-c3ccccc3)cc2)cc1-c1ccccc1` [JJ129], the EC50 was 0.05 µM in series [1] (setting [5]) and greater than 10 µM in the series on mouse 3T3 fibroblasts.

In the case of `O=C(OC1CCCCC1)c1ccc(NCc2cncn2Cc2ccc(-c3ccccc3)cc2)cc1-c1ccccc1` [JJ130], the EC50 in [1] (setting [5]) was 0.01 µM; in the series on mouse 3T3 fibroblasts, greater than 10 µM.

With `c1ccc(-c2ccc(Cn3cncc3CNc3ccc(-c4cc5ccccc5o4)c(-c4ccccc4)c3)cc2)cc1` [JJ138], the figures for the EC50 (in series [1] (setting [5]); in the series with mouse 3T3 fibroblasts) were 0.1 µM and greater than 10 µM, respectively.

Take `c1ccc(-c2ccc(Cn3cncc3CNc3ccc(-c4noc5ccccc45)c(-c4ccccc4)c3)cc2)cc1` [JJ141]: the EC50 in [1] (setting [5]) is 0.01 µM; with mouse 3T3 fibroblasts it was greater than 10 µM.
